The values that follow come from the NIST ThermoML archive (doi:10.1016/j.tca.2009.06.012).

SMILES strings stand for the structures. ± gives the expanded uncertainty stated by the source.

The conditions of series [1]: Crystal.
Series [2] can be described thus: Molar enthalpy of transition or fusion. The note with it: Crystal; DSC.

For `Brc1ccc(-c2ccc(Br)cc2)cc1` [4,4'-dibromo-1,1'-biphenyl], the Normal melting temperature in series [1] (visual observation) is 167.50 ± 0.5 °C. In series [2], the “Molar enthalpy of transition or fusion” value is 6.78 ± 0.203 kcal/mol.

For the molecule `N#CCCC#N` [butanedinitrile], the Normal melting temperature in series [1] (DTA) stood at 56.50 ± 0.5 °C. Besides, in series [2], the “Molar enthalpy of transition or fusion” value is 0.884 ± 0.0765 kcal/mol.
